Measurements reported in patent US10604494B2, “Acylated N-(1 ,2,5-oxadiazol-3-yl)-, N-(1,3,4-oxadiazol-2-yl)-, N-(tetrazol-5-yl)- and N-(triazol-5-yl)-aryl carboxamides, and use thereof as herbicides” (Bayer CropScience Aktiengesellschaft, priority 2015, dated 2020).

Legend:
Assay type in all cases: in vivo
[1] = test system: Veronica persica; test: Pre-emergence herbicidal action against harmful plants; conditions: 504 h, application rate 320 g/ha, scored visually after 3 weeks vs untreated controls, 100% = plants have died, 0% = like control plants, read-out: efficacy (herbicidal activity in percent) against Veronica persica
Excerpt: (§1) 1. Pre-Emergence Herbicidal Action Against Harmful Plants Seeds of monocotyledonous and dicotyledonous weed plants and crop plants are laid out in sandy loam in wood-fiber pots and covered with soil. The compounds of the invention, formulated in the form of wettable powders (WP) or as emulsion concentrates (EC), are then applied to the surface of the covering soil in the form of an aqueous suspension or emulsion at a water application rate equating to 600 to 800 I/ha, with addition of 0.2% wetting agent. After the treatment, the pots are placed in a greenhouse and kept under good growth conditions for the trial plants. The damage to the test plants is scored visually after a test period of 3 weeks by comparison with untreated controls (herbicidal activity in percent (%): 100% activity=the plants have died, 0% activity=like control plants). In this case, for example, compound Nos. 1-086, 1-028, 1-206, 1-447, 1-448, 1-449, 1-454, 1-458, 1-470, 1-471, 1-472, 1-477, 1-487, 2-477, 2-480, 2-500, 3-143, 3-475, 3-491, 4-188, 4-495, 4-430, 4-496, 13-001, 13-031 and 13-032, at an application rate of 320 g/ha, each show at least 80% efficacy against Abutilon theophrasti and Veronica persica.

[2] = test system: Abutilon theophrasti; test: as above; conditions: 504 h, application rate 320 g/ha, scored visually after 3 weeks vs untreated controls, 100% = plants have died, 0% = like control plants, read-out: efficacy (herbicidal activity in percent) against Abutilon theophrasti
Excerpt: as §1

[3] = test system: Veronica persica; test: Post-emergence herbicidal action against harmful plants; conditions: 504 h, one-leaf stage, application rate 80 g/ha, assessed visually after about 3 weeks vs untreated controls, 100% = plants have died, 0% = like control plants, read-out: efficacy (herbicidal action in percent) against Veronica persica
Method: (§2) 2. Post-Emergence Herbicidal Action Against Harmful Plants Seeds of monocotyledonous and dicotyledonous weed and crop plants are laid out in sandy loam soil in wood-fiber pots, covered with soil and cultivated in a greenhouse under good growth conditions. 2 to 3 weeks after sowing, the test plants are treated at the one-leaf stage. The compounds of the invention, formulated in the form of wettable powders (WP) or as emulsion concentrates (EC), are then sprayed onto the green parts of the plants in the form of an aqueous suspension or emulsion at a water application rate equating to 600 to 800 I/ha, with addition of 0.2% wetting agent. After the test plants have been left to stand in the greenhouse under optimal growth conditions for about 3 weeks, the action of the preparations is assessed visually in comparison to untreated controls (herbicidal action in percent (%): 100% activity=the plants have died, 0% activity=like control plants). In this case, for example, compound Nos. 1-028, 1-085, 1-086, 1-206, 1-447, 1-448, 1-449, 1-453, 1-457, 1-460, 1-470, 1-471, 1-472, 1-487, 2-500, 3-143, 3-146, 3-487, 3-491, 3-492, 4-144, 4-188, 13-001, 13-031 and 13-032, at an application rate of 80 g/ha, each show at least 80% efficacy against Abutilon theophrasti and Veronica persica.

[4] = test system: Abutilon theophrasti; test: as above; conditions: 504 h, one-leaf stage, application rate 80 g/ha, assessed visually after about 3 weeks vs untreated controls, 100% = plants have died, 0% = like control plants, read-out: efficacy (herbicidal action in percent) against Abutilon theophrasti
Method: as §2

CC(C)c1c(C(=O)N(C(=O)c2ccc(C(F)(F)F)c(S(C)(=O)=O)c2C(C)C)c2nnnn2C)ccc(C(F)(F)F)c1S(C)(=O)=O [1-206]
≥ 80%: pest or weed control at 320 g/ha [1] | pest or weed control at 320 g/ha [2] | pest or weed control at 80 g/ha [3] | pest or weed control at 80 g/ha [4]

Cc1c(C(=O)N(C(=O)c2ccc(C(F)(F)F)c(N)c2C)c2nnnn2C)ccc(C(F)(F)F)c1N [1-447]
≥ 80%: pest or weed control at 320 g/ha [1] | pest or weed control at 320 g/ha [2] | pest or weed control at 80 g/ha [3] | pest or weed control at 80 g/ha [4]

Cc1c(C(=O)N(C(=O)c2ccc(C(F)(F)F)c(N(C)C)c2C)c2nnnn2C)ccc(C(F)(F)F)c1N(C)C [1-448]
≥ 80%: pest or weed control at 320 g/ha [1] | pest or weed control at 320 g/ha [2] | pest or weed control at 80 g/ha [3] | pest or weed control at 80 g/ha [4]

CNc1c(C(F)(F)F)ccc(C(=O)N(C(=O)c2ccc(C(F)(F)F)c(NC)c2C)c2nnnn2C)c1C [1-449]
≥ 80%: pest or weed control at 320 g/ha [1] | pest or weed control at 320 g/ha [2] | pest or weed control at 80 g/ha [3] | pest or weed control at 80 g/ha [4]

CCOC(=O)c1c(SC)ccc(C(=O)N(C(=O)c2ccc(SC)c(C(=O)OCC)c2C)c2nnnn2C)c1C [1-453, 3-(ethoxycarbonyl)-2-methyl-4-(methylsulfanyl)-N-(3-(ethoxycarbonyl)-2-methyl-4-(methylsulfanyl)benzoyl)-N-(1-methyltetrazol-5-yl)benzamide]
≥ 80%: pest or weed control at 80 g/ha [3] | pest or weed control at 80 g/ha [4]

CSc1c(N(C)C)ccc(C(=O)N(C(=O)c2ccc(N(C)C)c(SC)c2C)c2nnnn2C)c1C [1-454]
≥ 80%: pest or weed control at 320 g/ha [1] | pest or weed control at 320 g/ha [2]

CCOc1ccc(C(=O)N(C(=O)c2ccc(OCC)c(SC)c2C)c2nnnn2C)c(C)c1SC [1-457]
≥ 80%: pest or weed control at 80 g/ha [3] | pest or weed control at 80 g/ha [4]

CSc1c(OCC(F)(F)F)ccc(C(=O)N(C(=O)c2ccc(OCC(F)(F)F)c(SC)c2C)c2nnnn2C)c1C [1-458]
≥ 80%: pest or weed control at 320 g/ha [1] | pest or weed control at 320 g/ha [2]

CSc1cc(C)cc(C(=O)N(C(=O)c2cc(C)cc(SC)c2C)c2nnnn2C)c1C [1-460]
≥ 80%: pest or weed control at 80 g/ha [3] | pest or weed control at 80 g/ha [4]

CCOc1c(C(=O)N(C(=O)c2ccc(C(F)(F)F)c(SC)c2OCC)c2nnnn2C)ccc(C(F)(F)F)c1SC [1-471]
≥ 80%: pest or weed control at 320 g/ha [1] | pest or weed control at 320 g/ha [2] | pest or weed control at 80 g/ha [3] | pest or weed control at 80 g/ha [4]

CCOc1c(C(=O)N(C(=O)c2ccc(C(F)(F)F)c(S(C)(=O)=O)c2OCC)c2nnnn2C)ccc(C(F)(F)F)c1S(C)(=O)=O [1-472]
≥ 80%: pest or weed control at 320 g/ha [1] | pest or weed control at 320 g/ha [2] | pest or weed control at 80 g/ha [3] | pest or weed control at 80 g/ha [4]

Cc1nonc1N(C(=O)c1ccc(C(F)(F)F)c([S+](C)[O-])c1C)C(=O)c1ccc(C(F)(F)F)c([S+](C)[O-])c1C (centres unmarked) [4-144]
≥ 80%: pest or weed control at 80 g/ha [3] | pest or weed control at 80 g/ha [4]

CC[S+]([O-])c1c(S(C)(=O)=O)ccc(C(=O)N(C(=O)c2ccc(S(C)(=O)=O)c([S+]([O-])CC)c2C)c2nonc2C)c1C (centres unmarked) [4-188]
≥ 80%: pest or weed control at 320 g/ha [1] | pest or weed control at 320 g/ha [2] | pest or weed control at 80 g/ha [3] | pest or weed control at 80 g/ha [4]

CC(=O)N(C(=O)c1ccc(C(F)(F)F)cc1S(C)(=O)=O)c1nnnn1C [13-001, 2-(methylsulfonyl)-4-trifluoromethyl-N-acetyl-N-(1-methyltetrazol-5-yl)benzamide]
≥ 80%: pest or weed control at 320 g/ha [1] | pest or weed control at 320 g/ha [2] | pest or weed control at 80 g/ha [3] | pest or weed control at 80 g/ha [4]
